According to patent US20100021893A1, “Modulators of lanosterol synthetase for treating acne or hyperseborrhea” (GALDERMA RESEARCH & DEVELOPMENT, priority 2006, published 2010):

System: mRNA for lanosterol synthetase in the mouse preputial gland
Conditions: gonadectomized male mice, short-term treatment, Affymetrix, effect visible at 18, 24 and 96 hours
Experimental: The expression of the genes was analyzed on an Affymetrix station (microfluidic model; hybridization oven; scanner; computer) following the protocols provided by the company. Briefly, the total RNA isolated from the tissues is transcribed to cDNA. From the double-stranded cDNA, a cRNA labeled with biotin is synthesized using T7 polymerase and a precursor NTP conjugated to biotin. The cRNAs are then fragmented to small sized fragments. All the molecular biology steps are checked using the Agilent “Lab on a chip” system in order to confirm the good efficiencies of the enzymatic reactions. The Affymetrix chip is hybridized with the biotinylated cRNA, rinsed and then fluorescence labeled using a fluorophore conjugated to streptavidin. After washings, the chip is scanned and the results are calculated using the MAS5 software provided by Affymetrix. An expression value is obtained for each gene as well as the indication of the significance of the value obtained. […]
The gene expression was analyzed using the Affymetrix technology described above (FIG. 1A) and the results were then confirmed by the real-time PCR technique (FIG. 1B).
B. Male mice were gonadectomized and were then treated with the vehicle or DHT. […] The RNA was isolated and the expression of the genes was analyzed by the Affymetrix technique. […]

Structure (SMILES): C[C@]12CCC(=O)C[C@@H]1CC[C@@H]1[C@@H]2CC[C@]2(C)[C@@H](O)CC[C@@H]12 [DHT, Dihydrotestosterone]
- level of expression of the mRNA for lanosterol synthetase: induced
